Common to all, as to assay type: cell-based
Experiment [1] has as its system Escherichia coli EC-1: VOGEL, mouse virulent. As to the kind of experiment: MIC determination (CLSI), strain EC-1. The settings on record: Escherichia coli EC-1, VOGEL, mouse virulent; unit assumed. The method, boiled down:
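The mouse-virulent VOGEL isolate of E. coli, EC-1, served as test organism. Minimum inhibitory concentration was measured by CLSI dilution methodology (M7-A7; M100-S18 standards).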

Experiment [2] concerns Pseudomonas aeruginosa UI-18: Wild-type (PA-7). As to the kind of experiment: MIC determination (CLSI), strain PA-7. The settings on record: Pseudomonas aeruginosa UI-18, wild-type; unit assumed. The method, boiled down:
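MIC determined by broth dilution per CLSI M7-A7 guidelines with M100-S18 interpretive standards. Test organism: wild-type Pseudomonas aeruginosa UI-18, designated PA-7.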

For experiment [3], the system named is Acinetobacter baumanii/haemolyticus: Multidrug-resistant clinical isolate (AB-3167). As to the kind of experiment: MIC determination (CLSI), strain AB-3167. The settings on record: unit assumed. The method, boiled down: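 MIC measured by broth dilution per CLSI guidelines (M7-A7, M100-S18) against multidrug-resistant clinical isolate AB-3167 of Acinetobacter baumanii/haemolyticus.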

A value given as a limit tells only on which side of the number the result lay.

Experimental findings from patent publication US8846933B2, “N-link hydroxamic acid derivatives useful as antibacterial agents” (Pfizer Inc., priority 2009, dated 2014) are described below.

Consider `Cc1ncc(-c2ccc(-c3ccn(CC[C@](C)(C(=O)NO)S(C)(=O)=O)c(=O)c3)cc2)cn1` [Example 27, (2R)-N-hydroxy-2-methyl-4-{4-[4-(2-methylpyrimidin-5-yl)phenyl]-2-oxopyridin-1(2H)-yl}-2-(methylsulfonyl)butanamide], for which the EC-1 (MIC) in experiment [1] was found to be 16 µg/mL. The same compound had a PA-7 (MIC) in experiment [2] of 4 µg/mL. Also, the AB-3167 (MIC) in experiment [3] was > 64 µg/mL.

For `C[C@@](CCn1ccc(-c2ccc(OC(F)F)cc2F)cc1=O)(C(=O)NO)S(C)(=O)=O` [Example 28, (2R)-4-{4-[4-(difluoromethoxy)-2-fluorophenyl]-2-oxopyridin-1(2H)-yl}-N-hydroxy-2-methyl-2-(methylsulfonyl)butanamide], the EC-1 (MIC) in experiment [1] came out at 0.25 µg/mL. Further, the PA-7 (MIC) in experiment [2] stood at 0.5 µg/mL. Also, in experiment [3], the AB-3167 (MIC) is > 64 µg/mL.

In experiment [1], `CC(CCn1ccc(-c2ccc(Oc3ccccn3)cc2)cc1=O)(C(=O)NO)S(C)(=O)=O` (stereo not drawn) [Example 29, N-Hydroxy-2-methyl-2-(methylsulfonyl)-4-{2-oxo-4-[4-(pyridin-2-yloxy)phenyl]pyridin-1(2H)-yl}butanamide] showed an EC-1 (MIC) of 0.5 µg/mL. Moreover, in experiment [2], the PA-7 (MIC) came out at 4 µg/mL. Further, the AB-3167 (MIC) in experiment [3] is > 64 µg/mL.

For `CC(CCn1ccc(-c2ccc(OCCCO)cc2)cc1=O)(C(=O)NO)S(C)(=O)=O` (stereo not drawn) [Example 30, N-hydroxy-4-{4-[4-(3-hydroxypropoxy)phenyl]-2-oxopyridin-1(2H)-yl}-2-methyl-2-(methylsulfonyl)butanamide], the EC-1 (MIC) in experiment [1] is 2 µg/mL. In addition, the PA-7 (MIC) in experiment [2] is 4 µg/mL. The AB-3167 (MIC) in experiment [3] was > 64 µg/mL.

In turn, `CC(CCn1ccc(-c2ccc(CCCO)cc2)cc1=O)(C(=O)NO)S(C)(=O)=O` (stereo not drawn) [Example 31, N-Hydroxy-4-{4-[4-(3-hydroxypropyl)phenyl]-2-oxopyridin-1(2H)-yl}-2-methyl-2-(methylsulfonyl)butanamide] came in with an EC-1 (MIC) in experiment [1] of 8 µg/mL. The compound further had a PA-7 (MIC) in experiment [2] of 4 µg/mL. Further, the AB-3167 (MIC) in experiment [3] is > 64 µg/mL.

Regarding `C[C@@](CCn1ccc(-c2ccc(OCCC3CC(O)C3)cc2)cc1=O)(C(=O)NO)S(C)(=O)=O` (stereo partly drawn) [Example 32, (2R)-N-hydroxy-4-[4-{4-[2-(3-hydroxycyclobutyl)ethoxy]phenyl}-2-oxopyridin-1(2H)-yl]-2-methyl-2-(methylsulfonyl)butanamide], the EC-1 (MIC) in experiment [1] is 0.25 µg/mL. The same compound had a PA-7 (MIC) in experiment [2] of 1 µg/mL. Also, the AB-3167 (MIC) in experiment [3] is > 64 µg/mL.

Take `CC(CCn1ccc(-c2ccc3cccnc3c2)cc1=O)(C(=O)NO)S(C)(=O)=O` (stereo not drawn) [Example 36, N-hydroxy-2-methyl-2-(methylsulfonyl)-4-(2-oxo-4-quinolin-7-ylpyridin-1(2H)-yl)butanamide]: the EC-1 (MIC) in experiment [1] turned out to be 4 µg/mL. In experiment [2], this compound gave a PA-7 (MIC) of 8 µg/mL. For the same compound, the AB-3167 (MIC) in experiment [3] was > 64 µg/mL.

In turn, `CC(CCn1ccc(-c2ccc(OCCc3ccncc3)cc2)cc1=O)(C(=O)NO)S(C)(=O)=O` (stereo not drawn) [Example 37, N-hydroxy-2-methyl-2-(methylsulfonyl)-4-{2-oxo-4-[4-(2-pyridin-4-ylethoxy)phenyl]pyridin-1(2H)-yl}butanamide] registered an EC-1 (MIC) in experiment [1] of 0.5 µg/mL. Further, the PA-7 (MIC) in experiment [2] was determined as 4 µg/mL. Moreover, the AB-3167 (MIC) in experiment [3] is > 64 µg/mL.

Turning to `Cc1cnc(-c2ccc(-c3ccn(CC[C@](C)(C(=O)NO)S(C)(=O)=O)c(=O)c3)cc2)o1` [Example 38, (2R)-N-hydroxy-2-methyl-4-{4-[4-(5-methyl-1,3-oxazol-2-yl)phenyl]-2-oxopyridin-1(2H)-yl}-2-(methylsulfonyl)butanamide], the EC-1 (MIC) in experiment [1] stood at 0.06 µg/mL. Further, the PA-7 (MIC) in experiment [2] amounted to 0.5 µg/mL. In addition, in experiment [3], the AB-3167 (MIC) is > 64 µg/mL.

`C[C@@](CCn1ccc(-c2ccc(-c3ncccn3)cc2)cc1=O)(C(=O)NO)S(C)(=O)=O` [Example 39, (2R)-N-hydroxy-2-methyl-2-(methylsulfonyl)-4-[2-oxo-4-(4-pyrimidin-2-ylphenyl)pyridin-1(2H)-yl]butanamide] returned an EC-1 (MIC) in experiment [1] of 0.5 µg/mL. The PA-7 (MIC) in experiment [2] was found to be 2 µg/mL. The AB-3167 (MIC) in experiment [3] is > 64 µg/mL.

Regarding `C[C@@](CCn1ccc(-c2ccc(-n3nccn3)cc2)cc1=O)(C(=O)NO)S(C)(=O)=O` [Example 40, (2R)-N-hydroxy-2-methyl-2-(methylsulfonyl)-4-{2-oxo-4-[4-(2H-1,2,3-triazol-2-yl)phenyl]pyridin-1(2H)-yl}butanamide], the EC-1 (MIC) in experiment [1] is 0.03 µg/mL. The same compound gave a PA-7 (MIC) in experiment [2] of 0.25 µg/mL. Further, the AB-3167 (MIC) in experiment [3] is > 64 µg/mL.

In experiment [1], `C[C@@](CCn1ccc(-c2ccc(F)cc2)cc1=O)(C(=O)NO)S(C)(=O)=O` [Example 41, (2R)-4-[4-(4-fluorophenyl)-2-oxopyridin-1(2H)-yl]-N-hydroxy-2-methyl-2-(methylsulfonyl)butanamide] had an EC-1 (MIC) of 1 µg/mL. The compound further showed a PA-7 (MIC) in experiment [2] of 0.5 µg/mL. Moreover, in experiment [3], the AB-3167 (MIC) is > 64 µg/mL.

Compound `C[C@@](CCn1ccc(-c2cccc(F)c2)cc1=O)(C(=O)NO)S(C)(=O)=O` [Example 42, (2R)-4-[4-(3-fluorophenyl)-2-oxopyridin-1(2H)-yl]-N-hydroxy-2-methyl-2-(methylsulfonyl)butanamide] yielded an EC-1 (MIC) in experiment [1] of 2 µg/mL. This compound also showed a PA-7 (MIC) in experiment [2] of 1 µg/mL. The AB-3167 (MIC) in experiment [3] was > 64 µg/mL.

Compound `C[C@@](CCn1ccc(-c2ccccc2F)cc1=O)(C(=O)NO)S(C)(=O)=O` [Example 43, (2R)-4-[4-(2-fluorophenyl)-2-oxopyridin-1(2H)-yl]-N-hydroxy-2-methyl-2-(methylsulfonyl)butanamide] registered an EC-1 (MIC) in experiment [1] of 1 µg/mL. Further, the PA-7 (MIC) in experiment [2] was 0.5 µg/mL. Besides, in experiment [3], the AB-3167 (MIC) was > 64 µg/mL.

Compound `COc1ccc(-c2ccn(CC[C@](C)(C(=O)NO)S(C)(=O)=O)c(=O)c2)c(F)c1F` [Example 44, (2R)-4-[4-(2,3-difluoro-4-methoxyphenyl)-2-oxopyridin-1(2H)-yl]-N-hydroxy-2-methyl-2-(methylsulfonyl)butanamide] gave an EC-1 (MIC) in experiment [1] of 0.015 µg/mL. The same compound returned a PA-7 (MIC) in experiment [2] of 1 µg/mL. Also, the AB-3167 (MIC) in experiment [3] is > 64 µg/mL.

As to `C[C@@](CCn1ccc(-c2cccc(Cl)c2F)cc1=O)(C(=O)NO)S(C)(=O)=O` [Example 45, (2R)-4-[4-(3-chloro-2-fluorophenyl)-2-oxopyridin-1(2H)-yl]-N-hydroxy-2-methyl-2-(methylsulfonyl)butanamide], in experiment [1], the EC-1 (MIC) came out at 0.25 µg/mL. In addition, the PA-7 (MIC) in experiment [2] stood at 0.5 µg/mL. For the same compound, in experiment [3], the AB-3167 (MIC) is > 64 µg/mL.

For the compound `C[C@@](CCn1ccc(-c2cccc(Cl)c2Cl)cc1=O)(C(=O)NO)S(C)(=O)=O` [Example 46, (2R)-4-[4-(2,3-dichlorophenyl)-2-oxopyridin-1(2H)-yl]-N-hydroxy-2-methyl-2-(methylsulfonyl)butanamide], the EC-1 (MIC) in experiment [1] stood at 0.25 µg/mL. In experiment [2], this compound came in with a PA-7 (MIC) of 0.5 µg/mL. The AB-3167 (MIC) in experiment [3] was > 64 µg/mL.

Consider `C[C@@](CCn1ccc(-c2ccc(C3CCOCC3)cc2)cc1=O)(C(=O)NO)S(C)(=O)=O` [Example 47, (2R)-N-hydroxy-2-methyl-2-(methylsulfonyl)-4-{2-oxo-4-[4-(tetrahydro-2H-pyran-4-yl)phenyl]pyridin-1(2H)-yl}butanamide], for which the EC-1 (MIC) in experiment [1] is 0.5 µg/mL. In experiment [2], this compound came in with a PA-7 (MIC) of 2 µg/mL. Also, the AB-3167 (MIC) in experiment [3] was > 64 µg/mL.
